Common to all, as to type: physicochemical
A short description of data set [1]: Stability of second liquid vitamin formulation (Example 1), stored at 40° C., HPLC. The note with it: for CONC at T = 0: immediately after preparation; for CONC at T = 1 week / CONC at T = 2 weeks / CONC at T = 3 weeks / CONC at T = 4 weeks: stored at 40° C. As for the experimental part: (§1) The stability of each formulation in the composition each was determined over a 4 weeks period. The concentration of vitamin in the formulation was analysed using standard analytical methods (high performance liquid chromatography). The formulations were stored at 40° C. over the test period.

The nature of data set [2]: Stability of third liquid vitamin formulation (vitamin K3, Example 1), stored at 40° C., HPLC. As for the experimental part: as §1
The nature of data set [3]: Stability of first liquid vitamin formulation (Example 1), stored at 40° C., HPLC. The note with it: for CONC at T = 0: immediately after preparation; for CONC at T = 2 weeks / CONC at T = 4 weeks: stored at 40° C. How it is done:
as §1

Data set [4] is described as follows: Stability of vitamin A in poultry feed (Example 3), 20° C., 80% humidity, HPLC. The note with it: four weeks. How it is done: A standard poultry feed comprising a digestible carbohydrate, a source of fat, a source of amino acid, vitamins and minerals as detailed in Table 3.1 below was used in this example Two sources of vitamin A are compared. Mixture A contained the vitamin composition in the liquid form according to the present invention whilst mixture B contained the conventional powdered vitamin composition. The vitamin pre-mixes were added to the feed. The stability of vitamin A in both feed samples was determined over a four weeks period. The feeds were stored at 20° C. and under 80% humidity. The concentration of vitamin A in the feed was measured using conventional analytical methods (high performance liquid chromatography).

For `Cc1cc2nc3c(=O)[nH]c(=O)nc-3n(C[C@H](O)[C@H](O)[C@H](O)CO)c2cc1C` [Vitamin B2, riboflavin], in data set [1], the “CONC at T = 0” value is 1 g % g of solution, the “CONC at T = 1 week” value is reported as 1.08 g % g of solution, the “CONC at T = 2 weeks” value is on record as 1.04 g % g of solution and the “CONC at T = 3 weeks” value is 1.04 g % g of solution. Further, the “CONC at T = 4 weeks” value in data set [1] is listed as 1.01 g % g of solution.

Consider `NC(=O)c1cccnc1` [Vitamin B3, niacinamide], for which, in data set [1], the “CONC at T = 0” value was 8 g % g of solution, the “CONC at T = 1 week” value is reported as 7.98 g % g of solution, the “CONC at T = 2 weeks” value was 7.8 g % g of solution and the “CONC at T = 3 weeks” value was 7.85 g % g of solution. For the same compound, the “CONC at T = 4 weeks” value in data set [1] is 8 g % g of solution.

With `CC(C)(CO)[C@@H](O)C(=O)NCCCO` [Vitamin B5, dexpanthénol], in data set [1], the “CONC at T = 0” value is 2.63 g % g of solution, the “CONC at T = 1 week” value is 2.64 g % g of solution, the “CONC at T = 2 weeks” value was 2.65 g % g of solution and the “CONC at T = 3 weeks” value is given as 2.64 g % g of solution. Moreover, in data set [1], the “CONC at T = 4 weeks” value was 2.69 g % g of solution.

Turning to `Cc1ncc(CO)c(CO)c1O.OCl` [Vitamin B6, pyridoxine chlorohydrate], in data set [1], the “CONC at T = 0” value is 0.355 g % g of solution, the “CONC at T = 1 week” value is recorded as 0.32 g % g of solution, the “CONC at T = 2 weeks” value is reported as 0.33 g % g of solution and the “CONC at T = 3 weeks” value is given as 0.333 g % g of solution. The “CONC at T = 4 weeks” value in data set [1] is on record as 0.329 g % g of solution.

Regarding `O=C(O)CCCC[C@@H]1SC[C@@H]2NC(=O)N[C@@H]21` [Vitamin H, biotine], in data set [1], the “CONC at T = 0” value is 0.021 g % g of solution, the “CONC at T = 1 week” value is given as 0.022 g % g of solution, the “CONC at T = 2 weeks” value was 0.02 g % g of solution and the “CONC at T = 3 weeks” value is reported as 0.021 g % g of solution. For the same compound, the “CONC at T = 4 weeks” value in data set [1] is listed as 0.021 g % g of solution.

With `CC1=CC(=O)c2ccccc2C1=O` [Vitamin K3, menadione], the “Stability of vitamin K3 in the third liquid formulation (in words)” value in data set [2] (40° C., 4 weeks) is reported as “stable”. Also, the “CONC at T = 0” value in data set [2] (third formulation, immediately after preparation) is on record as 2.00 g % g of solution. For the same compound, in data set [2] (third formulation, stored at 40° C., 2 weeks), the “CONC at T = 2 weeks” value is on record as 1.93 g % g of solution. Moreover, the “CONC at T = 4 weeks” value in data set [2] (third formulation, stored at 40° C., 4 weeks) is 1.92 g % g of solution.

Oil of Vitamin A: in data set [3], the “CONC at T = 0” value came out at 120500 UI/g, the “CONC at T = 2 weeks” value stood at 118500 UI/g and the “CONC at T = 4 weeks” value is listed as 120400 UI/g. Further, the “Stability of vitamin A in feed, liquid pre-mix versus powdered pre-mix (in words)” value in data set [4] is on record as “as stable in the feed containing the liquid pre-mix as in the conventional powdered pre-mix”.

With Oil of Vitamin D3, in data set [3], the “CONC at T = 0” value was 56200 UI/g, the “CONC at T = 2 weeks” value came out at 56160 UI/g and the “CONC at T = 4 weeks” value was 52800 UI/g.

Turning to Oil of Vitamin E, in data set [3], the “CONC at T = 0” value was found to be 27.6%, the “CONC at T = 2 weeks” value is reported as 29.1% and the “CONC at T = 4 weeks” value amounted to 29.3%.

As to Vitamin B12, in data set [3], the “CONC at T = 0” value is on record as 0.0202%, the “CONC at T = 2 weeks” value is listed as 0.0165% and the “CONC at T = 4 weeks” value stood at 0.0157%.

The values above are taken from patent US6852332B2, “Liquid vitamin composition” (Adisseo France S.A.S., priority 2000, dated 2005).
